Reference: the supplement of paper PMC10307832

What was measured:
Assay in all cases: relative viability (nuclei count vs DMSO), 5 days (fraction); higher = more cells survive
BEN = system: BEN
How it was run: (§1)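 Medians of duplicate plates are given as relative viability. That measure is the nuclei count in treated wells divided by the count in vehicle wells. Counts were taken on 4× images of lung cancer cell lines in 1536-well plates, 5 days after pin-tool dosing the day after seeding with one drug alone or a fixed anchor-drug dose plus five library-drug doses (not always all listed) in √10 steps.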

CAL-12T = system: CAL-12T
How it was run: as §1

COR-L23 = system: COR-L23
How it was run: as §1

HCC-44 = system: HCC-44
How it was run: as §1

LU99A = system: LU99A
How it was run: as §1

LXF-289 = system: LXF-289
How it was run: as §1

NCI-H1355 = system: NCI-H1355
How it was run: as §1

NCI-H1437 = system: NCI-H1437
How it was run: as §1

NCI-H1650 = system: NCI-H1650
How it was run: as §1

NCI-H1651 = system: NCI-H1651
How it was run: as §1

NCI-H1666 = system: NCI-H1666
How it was run: as §1

NCI-H1755 = system: NCI-H1755
How it was run: as §1

NCI-H1993 = system: NCI-H1993
How it was run: as §1

NCI-H2085 = system: NCI-H2085
How it was run: as §1

NCI-H2087 = system: NCI-H2087
How it was run: as §1

NCI-H2170 = system: NCI-H2170
How it was run: as §1

NCI-H460 = system: NCI-H460
How it was run: as §1

NCI-H520 = system: NCI-H520
How it was run: as §1

PC-14 = system: PC-14
How it was run: as §1

SK-MES-1 = system: SK-MES-1
How it was run: as §1

SMILES: CCNC(=O)c1noc(-c2cc(C(C)C)c(O)cc2O)c1-c1ccc(CN2CCOCC2)cc1 [Luminespib] + Cc1cc(Nc2cc(N3CCN(C)CC3)nc(Sc3ccc(NC(=O)C4CC4)cc3)n2)n[nH]1 [Tozasertib] (partner 0.1 µM)
- relative viability (BEN; first compound 0.002 µM): 0.554
- relative viability (BEN; first compound 0.006325 µM): 0.458
- relative viability (BEN; first compound 0.02 µM): 0.475
- relative viability (BEN; first compound 0.06325 µM): 0.37
- relative viability (BEN; first compound 0.2 µM): 0.383
- relative viability (CAL-12T; first compound 0.002 µM): 0.361
- relative viability (CAL-12T; first compound 0.006325 µM): 0.319
- relative viability (CAL-12T; first compound 0.02 µM): 0.211
- relative viability (CAL-12T; first compound 0.06325 µM): 0.113
- relative viability (CAL-12T; first compound 0.2 µM): 0.107
- relative viability (COR-L23; first compound 0.002 µM): 0.237
- relative viability (COR-L23; first compound 0.006325 µM): 0.192
- relative viability (COR-L23; first compound 0.02 µM): 0.272
- relative viability (COR-L23; first compound 0.06325 µM): 0.0698
- relative viability (COR-L23; first compound 0.2 µM): 0.0682
- relative viability (HCC-44; first compound 0.002 µM): 1.01
- relative viability (HCC-44; first compound 0.006325 µM): 0.766
- relative viability (HCC-44; first compound 0.02 µM): 0.99
- relative viability (HCC-44; first compound 0.06325 µM): 0.169
- relative viability (HCC-44; first compound 0.2 µM): 0.159
- relative viability (LU99A; first compound 0.002 µM): 0.261
- relative viability (LU99A; first compound 0.006325 µM): 0.277
- relative viability (LU99A; first compound 0.02 µM): 0.252
- relative viability (LU99A; first compound 0.06325 µM): 0.176
- relative viability (LU99A; first compound 0.2 µM): 0.139
- relative viability (LXF-289; first compound 0.002 µM): 0.225
- relative viability (LXF-289; first compound 0.006325 µM): 0.216
- relative viability (LXF-289; first compound 0.02 µM): 0.222
- relative viability (LXF-289; first compound 0.06325 µM): 0.141
- relative viability (LXF-289; first compound 0.2 µM): 0.0935
- relative viability (NCI-H1355; first compound 0.002 µM): 0.518
- relative viability (NCI-H1355; first compound 0.006325 µM): 0.577
- relative viability (NCI-H1355; first compound 0.02 µM): 0.421
- relative viability (NCI-H1355; first compound 0.06325 µM): 0.618
- relative viability (NCI-H1355; first compound 0.2 µM): 0.226
- relative viability (NCI-H1437; first compound 0.002 µM): 0.385
- relative viability (NCI-H1437; first compound 0.006325 µM): 0.359
- relative viability (NCI-H1437; first compound 0.02 µM): 0.497
- relative viability (NCI-H1437; first compound 0.06325 µM): 0.508
- relative viability (NCI-H1437; first compound 0.2 µM): 0.238
- relative viability (NCI-H1650; first compound 0.002 µM): 0.412
- relative viability (NCI-H1650; first compound 0.006325 µM): 0.455
- relative viability (NCI-H1650; first compound 0.02 µM): 0.168
- relative viability (NCI-H1650; first compound 0.06325 µM): 0.153
- relative viability (NCI-H1650; first compound 0.2 µM): 0.145
- relative viability (NCI-H1651; first compound 0.002 µM): 0.812
- relative viability (NCI-H1651; first compound 0.006325 µM): 0.577
- relative viability (NCI-H1651; first compound 0.02 µM): 0.611
- relative viability (NCI-H1651; first compound 0.06325 µM): 0.313
- relative viability (NCI-H1651; first compound 0.2 µM): 0.154
- relative viability (NCI-H1666; first compound 0.002 µM): 0.64
- relative viability (NCI-H1666; first compound 0.006325 µM): 0.583
- relative viability (NCI-H1666; first compound 0.02 µM): 0.601
- relative viability (NCI-H1666; first compound 0.06325 µM): 0.732
- relative viability (NCI-H1666; first compound 0.2 µM): 0.538
- relative viability (NCI-H1755; first compound 0.002 µM): 0.585
- relative viability (NCI-H1755; first compound 0.006325 µM): 0.592
- relative viability (NCI-H1755; first compound 0.02 µM): 0.646
- relative viability (NCI-H1755; first compound 0.06325 µM): 0.214
- relative viability (NCI-H1755; first compound 0.2 µM): 0.192
- relative viability (NCI-H1993; first compound 0.002 µM): 0.539
- relative viability (NCI-H1993; first compound 0.006325 µM): 0.6
- relative viability (NCI-H1993; first compound 0.02 µM): 0.533
- relative viability (NCI-H1993; first compound 0.06325 µM): 0.5
- relative viability (NCI-H1993; first compound 0.2 µM): 0.437
- relative viability (NCI-H2085; first compound 0.002 µM): 0.804
- relative viability (NCI-H2085; first compound 0.006325 µM): 0.749
- relative viability (NCI-H2085; first compound 0.02 µM): 0.758
- relative viability (NCI-H2085; first compound 0.06325 µM): 0.879
- relative viability (NCI-H2085; first compound 0.2 µM): 0.607
- relative viability (NCI-H2087; first compound 0.002 µM): 0.26
- relative viability (NCI-H2087; first compound 0.006325 µM): 0.29
- relative viability (NCI-H2087; first compound 0.02 µM): 0.243
- relative viability (NCI-H2087; first compound 0.06325 µM): 0.113
- relative viability (NCI-H2087; first compound 0.2 µM): 0.0985
- relative viability (NCI-H2170; first compound 0.002 µM): 0.72
- relative viability (NCI-H2170; first compound 0.006325 µM): 0.737
- relative viability (NCI-H2170; first compound 0.02 µM): 0.398
- relative viability (NCI-H2170; first compound 0.06325 µM): 0.299
- relative viability (NCI-H2170; first compound 0.2 µM): 0.158
- relative viability (NCI-H460; first compound 0.002 µM): 0.554
- relative viability (NCI-H460; first compound 0.006325 µM): 0.421
- relative viability (NCI-H460; first compound 0.02 µM): 0.597
- relative viability (NCI-H460; first compound 0.06325 µM): 0.0212
- relative viability (NCI-H460; first compound 0.2 µM): 0.0218
- relative viability (NCI-H520; first compound 0.002 µM): 0.404
- relative viability (NCI-H520; first compound 0.006325 µM): 0.449
- relative viability (NCI-H520; first compound 0.02 µM): 0.345
- relative viability (NCI-H520; first compound 0.06325 µM): 0.195
- relative viability (NCI-H520; first compound 0.2 µM): 0.221
- relative viability (PC-14; first compound 0.002 µM): 0.567
- relative viability (PC-14; first compound 0.006325 µM): 0.547
- relative viability (PC-14; first compound 0.02 µM): 0.326
- relative viability (PC-14; first compound 0.06325 µM): 0.0498
- relative viability (PC-14; first compound 0.2 µM): 0.0697
- relative viability (SK-MES-1; first compound 0.002 µM): 0.822
- relative viability (SK-MES-1; first compound 0.006325 µM): 0.849
- relative viability (SK-MES-1; first compound 0.02 µM): 1.01
- relative viability (SK-MES-1; first compound 0.06325 µM): 0.144
- relative viability (SK-MES-1; first compound 0.2 µM): 0.159
